Data published in patent EP3046573B1, “AMYLIN ANALOGUES” (Zealand Pharma A/S, priority 2013, dated 2015).
Numbered stars: 1 amine (or outer) side, 2 acyl side, 3 side chain; on linkers, the order of the positions; unused ones are H or OH. Bridge positions count the residues as written; N and C are the ends. Square brackets hold non-standard residues; d marks the D form. Peptide text beside a SMILES is read from it. * marks the point of attachment. C20 diacid = O=C(O)CCCCCCCCCCCCCCCCCCC(=O)*; γGlu = O=C(O)[C@H](CCC(=O)[*:2])N[*:1]; NMeI = CC[C@H](C)[C@H](NC)C(=O)O; Orn = NCCC[C@H](N)C(=O)O; Sar = CNCC(=O)O

Experiment: Solubility assessment (turbidity absorbance at 325 nm)
Type: physicochemical
Conditions: stock 2 mg/ml diluted 1:1, ambient temperature (typically 25°C), n=1; for Solubility, Acetate buffer pH 4: 100 mM acetate buffer pH 4.0; for Solubility, Acetate buffer pH 5: 100 mM acetate buffer pH 5.0; for Solubility, Histidine buffer pH 6: 100 mM histidine buffer pH 6.0; for Solubility, Histidine buffer pH 7: 100 mM histidine buffer pH 7.0; for Solubility, Phosphate buffer pH 6: 100 mM phosphate buffer pH 6.0; for Solubility, Phosphate buffer pH 7: 100 mM phosphate buffer pH 7.0; for Solubility, Phosphate buffer pH 7.5: 100 mM phosphate buffer pH7.5
Description: A stock solution of the test peptide (2 mg/ml; determined from the weighed amount of peptide) in demineralized water adjusted to pH 2.5 with HCI was prepared, and aliquots were diluted 1:1 in 100 mM acetate buffer (pH 4.0 and pH 5.0), 100 mM histidine buffer (pH 6.0 and pH 7.0) and 100 mM phosphate buffer (pH 6.0, pH 7.0 and pH7.5), respectively, and loaded in a standard flat-bottom, non-sterile 96-well UV Microplate. The absorbance of samples (single samples, n=1) at 280 and 325 nm was measured in an absorbance-based plate reader, which was preheated to ambient temperature (typically 25°C). The turbidity absorbance criterion for a peptide solubility of ≥ 1 mg/ml was an absorbance at 325 nm of ≤ 0.02 absorbance units (which is 5 to 6 times the standard deviation of 8 buffer samples in a plate). Solubility data for peptides of the invention, pramlintide, and for a comparison pramlintide derivative denoted NN96 (see Example 5 below for details) are shown in Table 1, below. Table 1. Solubility data for compounds of the invention.

CC[C@H](C)[C@@H](C(=O)N[C@@H](CC(C)C)C(=O)N[C@@H](CO)C(=O)N[C@@H](CO)C(=O)N[C@H](C(=O)N[C@@H](CC(N)=O)C(=O)N[C@H](C(=O)NCC(=O)N[C@@H](CO)C(=O)N[C@@H](CC(N)=O)C(=O)N[C@H](C(=O)N1CCC[C@H]1C(N)=O)[C@@H](C)O)C(C)C)[C@@H](C)O)N(C)C(=O)[C@H](C)NC(=O)CN(C)C(=O)[C@H](Cc1ccccc1)NC(=O)[C@H](CC(N)=O)NC(=O)[C@H](CC(N)=O)NC(=O)[C@H](CO)NC(=O)[C@H](CO)NC(=O)[C@H](Cc1c[nH]cn1)NC(=O)[C@H](Cc1c[nH]cn1)NC(=O)[C@H](CC(C)C)NC(=O)[C@H](Cc1ccccc1)NC(=O)[C@H](CCC(=O)O)NC(=O)[C@H](C)NC(=O)[C@H](CC(C)C)NC(=O)[C@H](CCCNC(=N)N)NC(=O)[C@H](CCC(N)=O)NC(=O)[C@@H](NC(=O)[C@H](C)NC(=O)[C@@H]1CSSC[C@H](NC(=O)[C@H](CCCN)NC(=O)CC[C@H](NC(=O)CCCCCCCCCCCCCCCCCCC(=O)O)C(=O)O)C(=O)N[C@@H](CC(N)=O)C(=O)N[C@@H]([C@@H](C)O)C(=O)N[C@@H](C)C(=O)N[C@@H]([C@@H](C)O)C(=O)N1)[C@@H](C)O [Compound 65, [19CD]-isoGlu-Orn-C()NTATC()ATQRLAEFLHHSSNNF-Gly(Me)-A-Ile(Me)-LSSTNVGSNTP-NH2] ({C20 diacid-γGlu}-[Orn]CNTATCATQRLAEFLHHSSNNF[Sar]A[NMeI]LSSTNVGSNTP-NH2; disulfide 2-7)
SS (SS indicates solubility ≥ 1mg/ml): Solubility, Acetate buffer pH 4 | Solubility, Acetate buffer pH 5 | Solubility, Histidine buffer pH 6 | Solubility, Histidine buffer pH 7 | Solubility, Phosphate buffer pH 6 | Solubility, Phosphate buffer pH 7 | Solubility, Phosphate buffer pH 7.5

CC[C@H](C)[C@@H](C(=O)N[C@@H](CC(C)C)C(=O)N[C@@H](CO)C(=O)N[C@@H](CO)C(=O)N[C@H](C(=O)N[C@@H](CC(N)=O)C(=O)N[C@H](C(=O)NCC(=O)N[C@@H](CO)C(=O)N[C@@H](CC(N)=O)C(=O)N[C@H](C(=O)N1CCC[C@H]1C(N)=O)[C@@H](C)O)C(C)C)[C@@H](C)O)N(C)C(=O)[C@H](C)NC(=O)CN(C)C(=O)[C@H](Cc1ccccc1)NC(=O)[C@@H](CC(N)=O)NC(=O)[C@H](CC(N)=O)NC(=O)[C@H](CO)NC(=O)[C@H](CO)NC(=O)[C@H](Cc1c[nH]cn1)NC(=O)[C@H](Cc1c[nH]cn1)NC(=O)[C@H](CC(C)C)NC(=O)[C@H](Cc1ccccc1)NC(=O)[C@H](CCC(=O)O)NC(=O)[C@H](C)NC(=O)[C@H](CC(C)C)NC(=O)[C@H](CCCNC(=N)N)NC(=O)[C@H](CCC(N)=O)NC(=O)[C@@H](NC(=O)[C@H](C)NC(=O)[C@@H]1CSSC[C@H](NC(=O)[C@H](CCCNC(=N)N)NC(=O)CC[C@H](NC(=O)CCCCCCCCCCCCCCCCCCC(=O)O)C(=O)O)C(=O)N[C@@H](CC(N)=O)C(=O)N[C@@H]([C@@H](C)O)C(=O)N[C@@H](C)C(=O)N[C@@H]([C@@H](C)O)C(=O)N1)[C@@H](C)O [Compound 33, [19CD]-isoGlu-RC()NTATC()ATQRLAEFLHHSSN-DAsn-F-Gly(Me)-A-Ile(Me)-LSSTNVGSNTP-NH2] ({C20 diacid-γGlu}-RCNTATCATQRLAEFLHHSSN[dN]F[Sar]A[NMeI]LSSTNVGSNTP-NH2; disulfide 2-7)
SS (SS indicates solubility ≥ 1mg/ml): Solubility, Acetate buffer pH 4 | Solubility, Acetate buffer pH 5 | Solubility, Histidine buffer pH 6 | Solubility, Histidine buffer pH 7 | Solubility, Phosphate buffer pH 6 | Solubility, Phosphate buffer pH 7 | Solubility, Phosphate buffer pH 7.5
